The target in test [1] is Type-1 angiotensin II receptor (Homo sapiens, UniProt P30556). The test can be described thus: AT1 receptor antagonists, dose response, selectivity assay for APJ receptor antagonist project, cell-based, uHTS hits (AID 463214).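 Further: antagonist potency against angiotensin II stimulated AT1 response.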 The test is classed as functional.
For another test, the target named is Beta-galactosidase (Escherichia coli, UniProt Q8VNN2). The test can be described thus: PubChem AID 485352. The test is classed as functional.
Test [2] concerns the target T1, E3 ubiquitin-protein ligase XIAP (Homo sapiens, UniProt P98170). The test can be described thus: XIAP antagonists, biochemical, IAP family, fluorescence polarization (AID 1018). The test is classed as functional.
The target of test [3] is T1, E3 ubiquitin-protein ligase XIAP. The test can be described thus: Counter Screen using XIAP-Bir3 for Chemical Antagonists of Bir1/2 domains of IAP-family anti-apoptotic proteins. [Related pubchem assays (depositor defined):AID1018, AID1449, AID1514, AID1638, AID1749, AID1750, AID488957, AID488963].
Test [4] has as its target FAD-linked sulfhydryl oxidase ALR (Homo sapiens, UniProt P55789). The experiment in a line: inhibitors of human ALR sulfhydryl oxidase, dose response, biochemical, H2O2 detection, luminescence, cherry-pick (AID 493248).
The target of the next test is T2, Leucine aminopeptidase (Plasmodium falciparum 3D7, UniProt Q8IL11).
T2 sequence (Q8IL11 whole entry): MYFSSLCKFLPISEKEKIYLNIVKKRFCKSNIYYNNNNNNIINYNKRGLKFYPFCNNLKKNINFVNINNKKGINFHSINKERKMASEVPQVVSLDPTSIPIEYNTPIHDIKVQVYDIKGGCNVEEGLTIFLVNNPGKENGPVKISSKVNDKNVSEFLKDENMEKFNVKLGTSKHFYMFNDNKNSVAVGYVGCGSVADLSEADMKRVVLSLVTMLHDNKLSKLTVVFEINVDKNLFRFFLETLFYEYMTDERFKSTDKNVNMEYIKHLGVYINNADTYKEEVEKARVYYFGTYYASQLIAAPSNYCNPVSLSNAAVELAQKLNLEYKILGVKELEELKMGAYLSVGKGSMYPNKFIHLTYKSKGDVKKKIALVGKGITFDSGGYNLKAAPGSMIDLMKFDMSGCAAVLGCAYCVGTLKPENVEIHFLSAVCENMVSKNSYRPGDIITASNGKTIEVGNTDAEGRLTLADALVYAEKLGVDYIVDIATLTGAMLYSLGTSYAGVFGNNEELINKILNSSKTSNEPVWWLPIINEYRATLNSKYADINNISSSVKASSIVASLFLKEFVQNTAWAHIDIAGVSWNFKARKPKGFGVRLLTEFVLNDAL
The experiment in a line: P. falciparum M17LAP inhibitors, primary screen, biochemical, fluorogenic H-Leu-NHMec substrate, 1536-well (AID 1619). The test is classed as functional.

The target in a further test is Keap1/Nrf2 (Homo sapiens, UniProt Q14145). The test can be described thus: Keap1-Nrf2 protein-protein interaction inhibitors, dose response, biochemical, fluorescence polarization, cherry-picked samples (AID 588683). For orientation: Polarisation of emitted light reports the rotation of a fluorescent probe.
The target of test [5] is T3, RNA-binding protein pos-1 (Caenorhabditis elegans, UniProt G5EF15).
T3 sequence (G5EF15 whole entry): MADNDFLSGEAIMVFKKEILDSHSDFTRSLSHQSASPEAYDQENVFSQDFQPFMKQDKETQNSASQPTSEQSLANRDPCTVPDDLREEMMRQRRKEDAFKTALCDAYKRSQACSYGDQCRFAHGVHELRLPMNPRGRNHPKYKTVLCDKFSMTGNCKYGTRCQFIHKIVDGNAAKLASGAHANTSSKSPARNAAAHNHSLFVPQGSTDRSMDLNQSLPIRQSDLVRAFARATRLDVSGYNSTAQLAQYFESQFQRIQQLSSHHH
The test can be described thus: inhibitors of POS-1/mex-3 RNA binding, dose response, biochemical, fluorescence polarization (AID 1964).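 Further: purified POS-1 fused to maltose binding protein made in E. coli; potency of compounds blocking POS-1 binding to fluorescent RNA.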

Test [6] has as its target T4, Zinc finger protein mex-5 (Caenorhabditis elegans, UniProt Q9XUB2).
T4 sequence (Q9XUB2 whole entry): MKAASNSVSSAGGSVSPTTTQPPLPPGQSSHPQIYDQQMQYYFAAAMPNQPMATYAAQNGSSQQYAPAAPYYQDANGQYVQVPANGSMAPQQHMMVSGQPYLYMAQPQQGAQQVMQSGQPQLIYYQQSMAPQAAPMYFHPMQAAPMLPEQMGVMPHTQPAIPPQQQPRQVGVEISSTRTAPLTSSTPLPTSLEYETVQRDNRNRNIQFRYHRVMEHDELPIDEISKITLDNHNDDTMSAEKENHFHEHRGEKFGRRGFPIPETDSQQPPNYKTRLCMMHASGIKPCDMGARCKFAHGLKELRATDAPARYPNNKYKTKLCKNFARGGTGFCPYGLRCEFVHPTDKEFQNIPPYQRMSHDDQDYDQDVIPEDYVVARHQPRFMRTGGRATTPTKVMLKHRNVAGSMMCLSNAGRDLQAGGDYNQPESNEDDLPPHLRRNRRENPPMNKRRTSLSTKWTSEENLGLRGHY
The test can be described thus: MEX-5/TCR-2 RNA interaction inhibitors, dose response, biochemical, C. elegans, fluorescence polarization (AID 1960).

The next test addresses Beta Lactamase (Pseudomonas aeruginosa, UniProt Q932Y6). The test can be described thus: beta-lactamase reporter inhibitor potency, dose response, artefact control for TLR9-MyD88 binding inhibitor project, BLA reporter cells, FRET fluorescence (AID 588341).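 Further: cell based assay in CHO-K1 cells stably expressing beta-lactamase.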 The test is classed as cell-based.
The test system of the next test is CHO. The test can be described thus: cytotoxicity in TLR9-MyD88 CHO cells, dose response, cytotoxicity control for TLR9-MyD88 binding inhibitor project, cell-based, luminescence (AID 588339).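 Further: CHO cells stably coexpressing TLR9 and MyD88 fusions from primary screen; compound exposure lasted 48 hours before viability readout.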 The test is classed as functional, hamster. As to conditions: Cricetulus griseus.
The nature of test [7]: cytotoxicity toward DRD oncogenic fibroblasts, dose response, cell-based, non-viral oncogenic, luminescence (AID 1934). The test is classed as functional. As to conditions: Homo sapiens.
Test [8] concerns BJ. The test can be described thus: cytotoxicity toward BJ-TERT fibroblasts, dose response, cell-based, RAS-independent, luminescence (AID 1933). The test is classed as functional. As to conditions: Homo sapiens.
For test [9], the system named is BJ. The experiment in a line: cells. The test is classed as functional, cell-based. As to conditions: Homo sapiens.
Test [10] relates to BJ. The test can be described thus: cytotoxicity toward BJ-TERT-LT-ST fibroblasts, dose response, cell-based, RAS-independent, luminescence (AID 1935).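 Further: BJ fibroblasts immortalized with TERT plus LT and ST oncogenes.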 The test is classed as functional. As to conditions: Homo sapiens.
Test [11] deals with T5, Kappa-type opioid receptor (Homo sapiens, UniProt P41145). The experiment in a line: KOR antagonists by imaging, SAR follow-up, image-based (AID 2348). The test is classed as functional.
Test [12] concerns the target T5, Kappa-type opioid receptor. The experiment in a line: kappa opioid receptor blockers, cell-based, luminescence, beta-arrestin, SAR follow-up (AID 2285). The test is classed as functional.
Test [13] addresses T6, Delta-type opioid receptor (Homo sapiens, UniProt P41143). The test can be described thus: DOR antagonists, SAR follow-up, image-based (AID 2357). The test is classed as functional.
Test [14] concerns the target T5, Kappa-type opioid receptor. The test can be described thus: KOR agonist analogs, imaging readout, SAR follow-up, image-based (AID 2359). The test is classed as functional.
The target in test [15] is T6, Delta-type opioid receptor. The experiment in a line: DOR agonists, SAR follow-up, image-based (AID 2370). The test is classed as functional.
Test [16] has as its target T7, Mu-type opioid receptor (Homo sapiens, UniProt P35372). The experiment in a line: MOR antagonists, SAR follow-up, image-based (AID 2420).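 Further: compounds added before stimulation of receptor with agonist DAMGO.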 The test is classed as functional.
The target in test [17] is T7, Mu-type opioid receptor. The test can be described thus: MOR agonists by imaging, SAR follow-up, image-based (AID 2352). The test is classed as functional.
Test [18] in a line: growth suppression of PTEN-null colon cells, dose response, cell-based, HCT116 PTEN knockout (AID 1047).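 Further: HCT116 colon tumor cells with PTEN knocked out; cells exposed to compound for 60 hours before readout; potency for loss of cell viability measured by luminescence.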 The test is classed as functional.
Test [19] can be described thus: growth suppression of beta-catenin-knockout colon cells, dose response, cell-based, HCT116, human colon tumor (AID 1045).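 Further: HCT116 colon tumor cells with beta catenin knocked out; cells exposed to compound for 60 hours.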 The test is classed as functional.
The target in test [20] is T8, Short transient receptor potential channel 4 (Mus musculus, UniProt Q9QUQ5).
T8 sequence (Q9QUQ5 whole entry): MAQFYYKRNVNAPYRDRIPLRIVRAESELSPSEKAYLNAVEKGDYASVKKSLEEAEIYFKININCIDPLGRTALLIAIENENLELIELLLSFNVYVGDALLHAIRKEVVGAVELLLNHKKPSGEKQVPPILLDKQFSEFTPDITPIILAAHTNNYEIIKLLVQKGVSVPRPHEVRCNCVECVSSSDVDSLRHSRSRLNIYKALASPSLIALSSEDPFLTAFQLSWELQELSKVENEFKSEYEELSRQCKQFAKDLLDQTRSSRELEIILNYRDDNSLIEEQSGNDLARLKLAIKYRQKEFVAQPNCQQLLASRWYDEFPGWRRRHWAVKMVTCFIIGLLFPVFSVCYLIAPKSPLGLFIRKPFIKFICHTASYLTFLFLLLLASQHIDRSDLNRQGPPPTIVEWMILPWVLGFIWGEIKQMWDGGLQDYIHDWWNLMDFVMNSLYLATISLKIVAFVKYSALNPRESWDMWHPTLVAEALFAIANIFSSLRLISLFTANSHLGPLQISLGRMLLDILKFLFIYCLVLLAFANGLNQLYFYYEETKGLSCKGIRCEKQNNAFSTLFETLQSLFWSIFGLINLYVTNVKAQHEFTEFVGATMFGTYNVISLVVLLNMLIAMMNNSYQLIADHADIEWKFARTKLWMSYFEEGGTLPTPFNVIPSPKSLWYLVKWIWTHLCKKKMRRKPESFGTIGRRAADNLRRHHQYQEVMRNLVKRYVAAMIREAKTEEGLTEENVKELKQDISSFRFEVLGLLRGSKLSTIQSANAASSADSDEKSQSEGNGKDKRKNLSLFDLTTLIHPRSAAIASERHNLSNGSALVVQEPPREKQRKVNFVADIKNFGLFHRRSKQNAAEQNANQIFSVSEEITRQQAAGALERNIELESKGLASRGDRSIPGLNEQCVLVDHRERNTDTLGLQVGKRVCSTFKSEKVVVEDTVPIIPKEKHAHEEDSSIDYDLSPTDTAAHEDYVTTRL
The experiment in a line: mouse TRPC4 channel inhibitors, dose response, cell-based, HEK293 TRPC4/mu-opioid, Fluo-4 calcium (AID 434942).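 Further: potency of inhibitors blocking the TRPC4 calcium response.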 The test is classed as functional.

Test [21] has as its target T8, Short transient receptor potential channel 4. The test can be described thus: mouse TRPC4 channel activators, dose response, cell-based, HEK293 TRPC4/mu-opioid, Fluo-4 calcium (AID 434937). The test is classed as functional.
Test [22] has as its target Intestinal-type alkaline phosphatase (Homo sapiens, UniProt P09923). The test can be described thus: human intestinal alkaline phosphatase activators, dose response, biochemical, luminescence, uHTS hits (AID 463120). The test is classed as functional.

SMILES strings stand for the structures. Activity calls are given as the source filed them. Some results are limits rather than exact numbers.

T7 sequence (P35372 whole entry): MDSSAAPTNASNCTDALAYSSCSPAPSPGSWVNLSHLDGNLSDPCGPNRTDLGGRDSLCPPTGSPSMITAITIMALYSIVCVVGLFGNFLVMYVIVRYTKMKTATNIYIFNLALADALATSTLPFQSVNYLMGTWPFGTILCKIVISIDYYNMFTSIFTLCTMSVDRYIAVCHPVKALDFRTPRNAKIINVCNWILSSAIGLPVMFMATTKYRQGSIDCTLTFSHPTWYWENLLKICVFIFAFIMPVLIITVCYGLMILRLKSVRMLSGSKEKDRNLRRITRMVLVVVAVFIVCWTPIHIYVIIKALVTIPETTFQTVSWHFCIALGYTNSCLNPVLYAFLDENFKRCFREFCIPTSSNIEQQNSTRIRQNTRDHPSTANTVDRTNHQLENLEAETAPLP
T6 sequence (P41143 whole entry): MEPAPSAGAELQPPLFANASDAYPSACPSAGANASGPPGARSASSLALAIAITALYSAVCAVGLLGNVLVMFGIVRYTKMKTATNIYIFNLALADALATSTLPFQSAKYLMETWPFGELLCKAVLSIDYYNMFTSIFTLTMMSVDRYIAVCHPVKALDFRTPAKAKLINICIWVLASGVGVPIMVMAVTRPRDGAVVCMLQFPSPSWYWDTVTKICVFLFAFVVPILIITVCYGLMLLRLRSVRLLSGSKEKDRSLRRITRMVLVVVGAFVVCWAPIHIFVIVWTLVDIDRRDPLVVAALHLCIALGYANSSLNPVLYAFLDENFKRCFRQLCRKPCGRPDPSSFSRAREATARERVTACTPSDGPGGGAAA
T5 sequence (P41145 whole entry): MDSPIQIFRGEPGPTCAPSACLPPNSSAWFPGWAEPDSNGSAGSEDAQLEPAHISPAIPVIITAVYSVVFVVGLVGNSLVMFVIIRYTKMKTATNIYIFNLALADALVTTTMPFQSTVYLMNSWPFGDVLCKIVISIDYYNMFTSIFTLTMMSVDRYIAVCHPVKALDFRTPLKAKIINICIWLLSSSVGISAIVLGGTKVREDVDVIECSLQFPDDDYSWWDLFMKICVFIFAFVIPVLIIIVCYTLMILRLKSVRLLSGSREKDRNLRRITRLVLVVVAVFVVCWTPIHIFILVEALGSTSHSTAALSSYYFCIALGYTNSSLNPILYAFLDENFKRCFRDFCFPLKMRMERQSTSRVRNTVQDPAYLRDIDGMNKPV
T1 sequence (P98170 whole entry): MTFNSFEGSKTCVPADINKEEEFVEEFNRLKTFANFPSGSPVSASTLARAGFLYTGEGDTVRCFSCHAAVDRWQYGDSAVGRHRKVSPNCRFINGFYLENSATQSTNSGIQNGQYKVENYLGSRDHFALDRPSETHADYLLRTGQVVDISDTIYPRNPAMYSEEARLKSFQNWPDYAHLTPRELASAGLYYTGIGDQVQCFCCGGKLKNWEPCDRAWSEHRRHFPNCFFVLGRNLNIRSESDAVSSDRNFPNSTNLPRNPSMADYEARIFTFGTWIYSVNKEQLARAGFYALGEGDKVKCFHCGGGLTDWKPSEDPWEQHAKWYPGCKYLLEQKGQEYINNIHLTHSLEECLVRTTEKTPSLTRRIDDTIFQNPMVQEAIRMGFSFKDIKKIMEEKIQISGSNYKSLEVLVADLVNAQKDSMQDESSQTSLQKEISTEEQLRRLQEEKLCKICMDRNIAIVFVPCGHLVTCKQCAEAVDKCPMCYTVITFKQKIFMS
Sequence of Beta-galactosidase (Q8VNN2 whole entry): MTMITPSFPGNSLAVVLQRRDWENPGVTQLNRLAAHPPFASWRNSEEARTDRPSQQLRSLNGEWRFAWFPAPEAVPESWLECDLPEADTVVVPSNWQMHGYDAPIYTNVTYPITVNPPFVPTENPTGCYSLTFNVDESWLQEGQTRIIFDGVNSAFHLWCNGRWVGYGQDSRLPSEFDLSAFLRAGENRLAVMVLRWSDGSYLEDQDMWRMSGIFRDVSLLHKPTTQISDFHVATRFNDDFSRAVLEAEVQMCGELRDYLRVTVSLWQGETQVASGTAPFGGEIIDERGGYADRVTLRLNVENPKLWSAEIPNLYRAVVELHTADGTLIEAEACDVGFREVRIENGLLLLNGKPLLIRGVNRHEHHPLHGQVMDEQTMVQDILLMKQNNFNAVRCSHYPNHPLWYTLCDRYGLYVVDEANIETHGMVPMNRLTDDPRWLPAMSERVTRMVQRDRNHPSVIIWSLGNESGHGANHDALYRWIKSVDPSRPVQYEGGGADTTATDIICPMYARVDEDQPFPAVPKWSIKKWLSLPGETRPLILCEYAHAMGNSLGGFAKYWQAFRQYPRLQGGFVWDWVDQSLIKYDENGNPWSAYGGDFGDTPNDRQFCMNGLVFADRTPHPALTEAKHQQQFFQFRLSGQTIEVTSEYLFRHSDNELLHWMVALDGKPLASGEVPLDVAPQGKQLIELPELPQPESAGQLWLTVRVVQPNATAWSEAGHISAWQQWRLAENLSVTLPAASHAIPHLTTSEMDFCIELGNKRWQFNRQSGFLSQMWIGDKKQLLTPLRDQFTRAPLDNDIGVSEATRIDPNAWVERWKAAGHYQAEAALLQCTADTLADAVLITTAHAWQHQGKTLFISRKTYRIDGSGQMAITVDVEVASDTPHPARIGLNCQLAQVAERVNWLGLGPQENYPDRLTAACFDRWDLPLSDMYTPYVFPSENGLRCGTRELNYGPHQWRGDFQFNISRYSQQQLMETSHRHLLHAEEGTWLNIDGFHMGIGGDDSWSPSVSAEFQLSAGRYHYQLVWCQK
Sequence of Keap1/Nrf2 (Q16236 whole entry): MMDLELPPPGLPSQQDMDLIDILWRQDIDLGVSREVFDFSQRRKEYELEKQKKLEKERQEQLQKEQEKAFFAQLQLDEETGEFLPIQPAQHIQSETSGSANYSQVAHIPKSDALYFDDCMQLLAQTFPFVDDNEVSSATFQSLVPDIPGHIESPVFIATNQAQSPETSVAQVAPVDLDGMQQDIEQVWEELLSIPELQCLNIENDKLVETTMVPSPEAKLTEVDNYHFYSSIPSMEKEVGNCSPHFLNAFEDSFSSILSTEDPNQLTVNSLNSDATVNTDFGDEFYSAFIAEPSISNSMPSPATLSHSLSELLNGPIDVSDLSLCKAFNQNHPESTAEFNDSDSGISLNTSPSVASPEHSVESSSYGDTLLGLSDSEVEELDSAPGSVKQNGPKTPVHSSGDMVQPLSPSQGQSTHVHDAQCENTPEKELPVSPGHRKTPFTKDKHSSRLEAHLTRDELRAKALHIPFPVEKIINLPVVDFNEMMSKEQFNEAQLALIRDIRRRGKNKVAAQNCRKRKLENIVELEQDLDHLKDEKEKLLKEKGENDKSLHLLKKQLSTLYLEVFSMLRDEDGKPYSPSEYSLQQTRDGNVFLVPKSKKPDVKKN
Sequence of Keap1/Nrf2 (Q14145 whole entry): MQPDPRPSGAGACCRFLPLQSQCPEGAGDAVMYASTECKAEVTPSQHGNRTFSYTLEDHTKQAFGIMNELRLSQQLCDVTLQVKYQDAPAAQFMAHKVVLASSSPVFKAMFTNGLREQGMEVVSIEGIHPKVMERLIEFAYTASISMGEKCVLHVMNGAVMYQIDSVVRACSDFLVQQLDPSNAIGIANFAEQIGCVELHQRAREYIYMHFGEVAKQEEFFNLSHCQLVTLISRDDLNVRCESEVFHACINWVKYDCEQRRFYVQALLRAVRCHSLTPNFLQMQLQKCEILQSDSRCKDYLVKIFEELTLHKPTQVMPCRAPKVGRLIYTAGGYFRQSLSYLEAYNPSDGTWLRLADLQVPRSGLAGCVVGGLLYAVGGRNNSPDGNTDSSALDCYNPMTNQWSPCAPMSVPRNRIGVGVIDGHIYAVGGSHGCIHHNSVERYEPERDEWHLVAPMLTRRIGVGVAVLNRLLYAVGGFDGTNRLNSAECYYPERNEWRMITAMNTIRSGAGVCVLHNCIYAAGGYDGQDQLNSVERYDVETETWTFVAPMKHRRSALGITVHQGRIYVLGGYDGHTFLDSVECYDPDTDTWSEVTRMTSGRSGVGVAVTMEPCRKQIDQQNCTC
Sequence of Type-1 angiotensin II receptor (P30556 whole entry): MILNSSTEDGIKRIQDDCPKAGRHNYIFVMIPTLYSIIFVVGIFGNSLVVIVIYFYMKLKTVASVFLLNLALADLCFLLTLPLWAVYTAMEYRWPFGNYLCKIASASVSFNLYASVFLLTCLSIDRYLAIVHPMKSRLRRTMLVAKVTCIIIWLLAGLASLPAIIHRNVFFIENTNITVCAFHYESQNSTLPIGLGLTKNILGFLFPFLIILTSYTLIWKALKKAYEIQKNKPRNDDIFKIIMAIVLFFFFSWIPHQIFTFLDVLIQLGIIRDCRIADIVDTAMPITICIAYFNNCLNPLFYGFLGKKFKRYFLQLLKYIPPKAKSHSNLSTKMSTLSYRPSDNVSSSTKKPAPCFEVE
Sequence of Beta Lactamase (Q932Y6 whole entry, the tested form may be a part): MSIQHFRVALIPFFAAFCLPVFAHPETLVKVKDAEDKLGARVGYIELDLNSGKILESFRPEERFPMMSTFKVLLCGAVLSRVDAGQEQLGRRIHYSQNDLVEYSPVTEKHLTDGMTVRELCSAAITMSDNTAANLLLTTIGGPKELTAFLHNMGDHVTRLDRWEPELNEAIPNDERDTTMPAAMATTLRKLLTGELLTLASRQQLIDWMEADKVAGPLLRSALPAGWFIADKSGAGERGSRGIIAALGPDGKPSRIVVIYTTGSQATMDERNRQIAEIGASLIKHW
Sequence of FAD-linked sulfhydryl oxidase ALR (P55789 whole entry): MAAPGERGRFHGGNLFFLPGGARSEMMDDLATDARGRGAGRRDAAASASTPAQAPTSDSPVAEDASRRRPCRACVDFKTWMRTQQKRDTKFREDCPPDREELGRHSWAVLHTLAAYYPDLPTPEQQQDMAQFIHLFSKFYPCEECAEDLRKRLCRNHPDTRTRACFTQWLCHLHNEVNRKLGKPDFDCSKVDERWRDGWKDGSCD

Turning to `Cc1cccc(NC(=S)NNc2ncc(C(F)(F)F)cc2Cl)c1`, the IC50 in [1] was 13.1 µM (active). Further, the EC50 at Beta-galactosidase was > 40 µM (inactive).

`O=[N+]([O-])c1ccccc1S(=O)(=O)N1CCCCC1`: the figures for the 50% inhibitory concentration (IC50) in [2] and in [3] were > 100 µM (not active) and > 100 µM (inactive), respectively.

On to `CSc1cccc(NC(=O)CN2C(=O)c3ccccc3S2(=O)=O)c1`, for which the AC50 in test [4] was 2.37 µM (active). For the same compound, the IC50 in test [2] was > 100 µM (not active); in test [3] it was > 100 µM (inactive); on Leucine aminopeptidase it was 5.87 µM (active).

As for `COc1cccc(/C=C/C(=O)OCC(=O)NC(=O)NC2CCCC2)c1`, the AC50 at Keap1/Nrf2 was > 52 µM (inactive).

Take `COc1ccc(Nc2nc(-c3cccnc3)nc3ccccc23)cn1`: the EC50 in test [5] was 12.4 µM (active); in test [6] it was 8.22 µM (active). The AC50 at Keap1/Nrf2 was > 52 µM (inactive).

For `Cc1ccc(Cl)c(NC(=O)COC(=O)c2ccccc2C(=O)c2ccc(Cl)c([N+](=O)[O-])c2)c1Cl`, the IC50 on Beta Lactamase is > 49.8 µM (inactive); in the test on CHO, 12.6 µM (inactive). In addition, the EC50 in test [7] is 7.58 µM (active); in the test with BJ [8], 2.71 µM (active); in the test with BJ [9], 16.8 µM (inconclusive); in the test with BJ [10], 3.87 µM (inconclusive).

Consider `COc1ccc(S(=O)(=O)NCc2ccc(C(=O)N3CCN(Cc4ccccc4)CC3)cc2)cc1`, for which the IC50 is > 32 µM (inactive) in test [11], > 10 µM (inactive) in test [12], > 32 µM (inactive) in test [13] and > 32 µM (inactive) on Mu-type opioid receptor [16]. The EC50 (in test [14]; in test [15]; at Mu-type opioid receptor [17]) was > 32 µM (inactive) each time.

Take `O=C(NC(NC(=S)Nc1ccc(F)cc1)C(Cl)(Cl)Cl)OCc1ccccc1` (centres undefined): the half-inhibitory concentration (IC50) in [11] is 6.02 µM (active); in test [12], > 10 µM (inactive); in test [13], > 32 µM (inactive); on Mu-type opioid receptor [16] it was > 32 µM (inactive). Also, the EC50 (in [14]; in test [15]; on Mu-type opioid receptor [17]) was > 32 µM (inactive) in each case.

Consider `O=C1Nc2ccc(Br)cc2/C1=N/N=C/C1=C(N2CCOCC2)C(=C\c2ccccc2)/CC1`, for which the IC50 in test [1] is on record as > 40 µM (not active). The EC50 in test [18] is 9.88 µM (active); on Beta-galactosidase, > 40 µM (inactive); in test [19], 11.4 µM (active).

Take `C/C(=N/NC(=O)c1ccc(Cn2cccn2)o1)c1cccc(NC(=O)c2ccncc2)c1`: the EC50 in [20] is 3.76 µM (active); in test [21] it was 5.31 µM (active); in [22] it was > 100 µM (inactive).

As usually defined, the IC50 is the point on the concentration scale where inhibition reaches its midpoint. The EC50 is the midpoint of the concentration-response curve. Usually AC50 stands for the concentration at which the activity in the assay is half-maximal.

(Values after ChEMBL document CHEMBL1201862, “PubChem BioAssay data set” (2004).)
